Test results as given in PubChem BioAssay (NCI).
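GI50 marks 50% less growth. TGI: concentration producing complete growth inhibition.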

Columns and labels:
Test in all cases: growth of human tumour cells (NCI), 384-well format
NCI-H23 lung = system: NCI-H23 lung
786-0 renal = system: 786-0 renal
MALME-3M melanoma = system: MALME-3M melanoma
SF-539 CNS = system: SF-539 CNS
A498 renal = system: A498 renal
DU-145 prostate = system: DU-145 prostate
A549 NSCLC = system: A549 NSCLC
U251 glioblastoma = system: U251 glioblastoma
OVCAR-8 ovarian = system: OVCAR-8 ovarian
NCI-H460 NSCLC = system: NCI-H460 NSCLC
OVCAR-5 ovarian = system: OVCAR-5 ovarian
MOLT-4 leukemia = system: MOLT-4 leukemia
SF-295 CNS = system: SF-295 CNS
SK-MEL-5 melanoma = system: SK-MEL-5 melanoma
HL-60(TB) leukemia = system: HL-60(TB) leukemia
M14 melanoma = system: M14 melanoma
HOP-62 NSCLC = system: HOP-62 NSCLC
CAKI-1 renal = system: CAKI-1 renal
LOX IMVI melanoma = system: LOX IMVI melanoma
SNB-19 CNS = system: SNB-19 CNS
HOP-92 NSCLC = system: HOP-92 NSCLC
MDA-MB-231 breast = system: MDA-MB-231 breast
BT-549 breast = system: BT-549 breast
SK-MEL-28 melanoma = system: SK-MEL-28 melanoma
PC-3 prostate = system: PC-3 prostate
NCI-H522 lung = system: NCI-H522 lung
SK-OV-3 ovarian = system: SK-OV-3 ovarian
MDA-MB-435 melanoma = system: MDA-MB-435 melanoma
K-562 leukemia = system: K-562 leukemia

CC1(C)CCC2(CC1)N[C@@H](C(=O)N[C@@H]1CC[C@@H](C(N)=O)OC1)[C@H](c1ccnc(Cl)c1F)[C@]21C(=O)Nc2cc(Cl)ccc21
TGI (NCI-H23 lung): 5350 nM
GI50 ([…]-0 renal): 2020 nM
TGI (786-0 renal): 4300 nM
GI50 (MALME-3M melanoma): 77.7 nM
TGI (MALME-3M melanoma): 1040 nM
GI50 (SF-539 CNS): 1660 nM
TGI (SF-539 CNS): 3120 nM
GI50 (A498 renal): 24.4 nM
TGI (A498 renal): 971 nM
GI50 (DU-145 prostate): 2660 nM
TGI (DU-145 prostate): 6740 nM
GI50 (A549 NSCLC): 74.6 nM
TGI (A549 NSCLC): 1300 nM
GI50 (U251 glioblastoma): 2080 nM
TGI (U251 glioblastoma): 4450 nM
GI50 (OVCAR-8 ovarian): 2400 nM
TGI (OVCAR-8 ovarian): 5610 nM
GI50 (NCI-H460 NSCLC): 31.2 nM
TGI (NCI-H460 NSCLC): 1130 nM
GI50 (OVCAR-5 ovarian): 2280 nM
TGI (OVCAR-5 ovarian): 5340 nM
GI50 (MOLT-4 leukemia): < 10 nM
TGI (MOLT-4 leukemia): 11.9 nM
GI50 (SF-295 CNS): 1740 nM
TGI (SF-295 CNS): 3290 nM
GI50 (SK-MEL-5 melanoma): 668 nM
TGI (SK-MEL-5 melanoma): 2070 nM
GI50 (HL-60(TB) leukemia): 2110 nM
TGI (HL-60(TB) leukemia): 3550 nM
GI50 (M14 melanoma): 47.3 nM
TGI (M14 melanoma): 2030 nM
GI50 (HOP-62 NSCLC): 1850 nM
TGI (HOP-62 NSCLC): 3780 nM
GI50 (CAKI-1 renal): < 10 nM
TGI (CAKI-1 renal): 347 nM
GI50 (LOX IMVI melanoma): 345 nM
TGI (LOX IMVI melanoma): 1880 nM
GI50 (SNB-19 CNS): 2350 nM
TGI (SNB-19 CNS): 5150 nM
GI50 (HOP-92 NSCLC): 1710 nM
TGI (HOP-92 NSCLC): 3530 nM
GI50 (MDA-MB-231 breast): 1820 nM
TGI (MDA-MB-231 breast): 3400 nM
GI50 (BT-549 breast): 1740 nM
TGI (BT-549 breast): 3780 nM
GI50 (SK-MEL-28 melanoma): 1710 nM
TGI (SK-MEL-28 melanoma): 3150 nM
GI50 (PC-3 prostate): 1840 nM
TGI (PC-3 prostate): 3330 nM
GI50 (NCI-H522 lung): 1580 nM
TGI (NCI-H522 lung): 3020 nM
GI50 (SK-OV-3 ovarian): 1800 nM
TGI (SK-OV-3 ovarian): 3670 nM
GI50 (MDA-MB-435 melanoma): 1810 nM
TGI (MDA-MB-435 melanoma): 3440 nM
GI50 (K-562 leukemia): 1640 nM
TGI (K-562 leukemia): 3030 nM
